Data on 15 compounds can be found in publication PMC3669024, “Pharmacological Characterization of a 5-HT1-Type Serotonin Receptor in the Red Flour Beetle, Tribolium castaneum” (PLoS ONE, 2013).

For test [1], the target named is T1, Trica5-HT1 (Tribolium castaneum, UniProt R9ULB8). Briefly: Aequorin-luminescence assay, agonist activation of Trica5-HT1 in CHO-WTA11 cells (apoaequorin + Gα16). The format is cell-based. The following applies: for response at 100 µM agonist: Figure 3A; for agonist behaviour: dose-response 1 pM to 1 mM; for response at concentrations ≤100 µM: results not shown. As for the experimental part:
(§1) General binding studies were performed in Chinese hamster ovary (CHO) WTA11 cells stably coexpressing apoaequorin and the promiscuous Gα16. This allowed us to measure the pharmacology independent of the downstream signaling. CHO-PAM28 cells stably expressing apoaequorin, but not the promiscuous Gα16, and human embryonic kidney cells (HEK) 293 cells were used to measure downstream signaling via Ca^2+ and cAMP, respectively. CHO cell lines were provided by Prof. Marc Parmentier (University of Brussels, Belgium) and Dr. Michel Detheux (Euroscreen S.A., Belgium). HEK293 cells were a gift from Prof. Arnd Baumann (Research Centre Jülich, Germany.
(§2) Cells were cultured in vitro as monolayers at 37°C, 5% CO2 and high relative humidity, and subcultivated twice a week. For transfection of CHO cells, 2.5 ml Opti-MEM®I (Invitrogen), 5 µg plasmid DNA and 12.5 µl Plus^TMreagent (Invitrogen) were mixed, stored at room temperature for 5 min and next repleted with 30 µl Lipofectamine™LTX (Invitrogen). After 30 min incubation at room temperature, this transfection mixture was added dropwise to the cells together with 5 ml medium. HEK293 cells were cotransfected with receptor construct (4 µg) and CRE-luciferase construct (2 µg), consisting of the open reading frame of the reporter gene, luciferase, downstream of a multimerized cAMP-response-element (CRE6x), [39]. All transfections were performed in T75 flasks with a confluency of about 60 percent. Cells were grown overnight, after which 15 ml of medium was added for an additional overnight incubation period.
(§3) The transfected CHO cells were detached with phosphate buffered saline (PBS) containing 0.2% EDTA and collected in DMEM/F-12 (without phenol red, with L-glutamine and 10 mM HEPES) (Gibco). The amount of viable cells was determined using the NucleoCounter NC-100+TM (Chemometic). Cells were pelleted for 4 min at 800 rpm at room temperature and resuspended in BSA-medium (DMEM/F12 without phenol red, with L-glutamine and 10 mM HEPES, supplemented with 0.1% bovine serum albumin) to a concentration of 5×10^6 cells/ml. Coelenterazine H (Invitrogen) was added to a final concentration of 5 µM, and cells were gently shaken for 4 h at room temperature in the dark. After a 10-fold dilution in BSA-medium, cells were incubated another 30 min. The pharmacological ligands were dissolved in BSA-medium. For agonists, 50 µl containing the final ligand concentration was added to appropriate wells of a 96-well plate. For antagonists, 25 µl of the antagonist solution was supplemented with 25 µl of a 5-HT solution. Receptor activity was measured as the light emission after adding 50 µl of the cell suspension. Light emission was measured for 30 s using a Mithras LB940 (Berthold Technologies). Subsequently, cells were lysed with Triton X-100 (0.1% in BSA-medium) and light emission was recorded for another 8 s. BSA-medium was used as a negative control. Light emission from each well was calculated relative to the total response (ligand+Triton X-100) using the output file of Mikrowin2000 software (Mikrotek). Further analysis was done in Graphpad Prism 5.
In order to pharmacologically characterize Trica5-HT1, we used CHO-WTA11 cells stably expressing apoaequorin and the promiscuous Gα16 subunit. […] The dose-response relationship for 5-HT and these synthetic agonists was examined at concentrations ranging from 1 pM to 1 mM (Figure 3B). […] Since the efficacy achieved by any agonist depends on the number of receptors expressed, we measured a dose-response curve for 5-HT in every experiment and normalized all agonist effects to the maximum 5-HT response, set at 100% (Figure 3B).

A further test deals with Am5-HT1. Further details: method as in PMID 20349263. The following applies: cited from earlier work.
A further test has as its system Pea5-HT1. The arrangement: method as in PMID 20233210. The following applies: cited from earlier work.
For test [2], the target named is T1, Trica5-HT1. Briefly: Aequorin-luminescence assay, antagonist inhibition of 5-HT mediated activation of Trica5-HT1 in CHO-WTA11 cells. The test is classed as cell-based. To be noted: for inhibition of 5-HT induced responses (words): antagonist 10 nM to 1 mM; for logIC50 (mean ± SEM) / IC50: CHO-WTA11 cells; for nature of inhibition: 5-HT dose-response in presence of different antagonist concentrations; for inhibition of activation by 100 nM 5-HT at high concentrations (≥1 mM): antagonist ≥1 mM. As for the experimental part:
as §1, §2, §3
Potential antagonists were tested by simultaneously applying 5-HT (100 nM) and a high dose of antagonist (100 µM) to Trica5-HT1 expressing cells (Figure 4A). In addition, the dose-dependence of the antagonistic effects were measured with antagonist concentrations ranging from 10 nM to 1 mM (Figure 4B). […] We used the Gaddum/Schild plot to compare the inhibitory potencies of the antagonists by their pA2 values (i.e. the […] of the concentration of antagonist that doubles the amount of 5-HT required for obtaining the same effect).

Setting [3] is: receptor activation in CHO-WTA11 cells, given as negative log values.
The mark [4] stands for this setting: receptor activation in CHO-WTA11 cells, read-out: EC50.
[5] abbreviates: inhibition of 5-HT (100 nM) mediated activation, given as negative log values.
[6] abbreviates: inhibition of 5-HT (100 nM) mediated activation, read-out: IC50.
The mark [7] stands for this setting: inhibition of 5-HT (100 nM) mediated activation.
Setting [8] is: logIC50 (mean ± SEM), inhibition of 5-HT (100 nM) mediated activation, given as negative log values.
[9] abbreviates: IC50, inhibition of 5-HT (100 nM) mediated activation.

SMILES strings stand for the structures. “Also recorded” adds a separate entry of the source. Counter-ions that a name gives are not always drawn. Like-named read-outs stand apart in the source and are kept apart here.

T1 sequence (R9ULB8 entry or part of it): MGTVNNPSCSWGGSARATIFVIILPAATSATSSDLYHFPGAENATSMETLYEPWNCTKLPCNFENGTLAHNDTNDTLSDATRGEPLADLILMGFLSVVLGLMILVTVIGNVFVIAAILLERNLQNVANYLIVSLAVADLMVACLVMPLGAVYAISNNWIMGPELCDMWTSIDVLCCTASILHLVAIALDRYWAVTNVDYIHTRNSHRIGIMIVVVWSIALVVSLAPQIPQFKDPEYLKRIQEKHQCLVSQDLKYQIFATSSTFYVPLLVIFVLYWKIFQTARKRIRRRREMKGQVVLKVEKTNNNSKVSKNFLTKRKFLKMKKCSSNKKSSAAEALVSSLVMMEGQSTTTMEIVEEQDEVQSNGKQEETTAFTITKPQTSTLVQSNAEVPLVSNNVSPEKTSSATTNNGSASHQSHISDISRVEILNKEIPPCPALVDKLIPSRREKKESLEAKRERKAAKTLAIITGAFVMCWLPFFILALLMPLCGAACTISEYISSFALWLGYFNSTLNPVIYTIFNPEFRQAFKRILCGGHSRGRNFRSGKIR

As for `CCCN(CCC)C1CCc2cccc(O)c2C1` (racemic) [8-OH-DPAT, (±)-8-hydroxy-2-(dipropylamino)tetralin hydrobromide], the “concentrations at which responses were evoked” value on Trica5-HT1 [1] (CHO-WTA11 cells) is listed as no less than 100 µM. In addition, the “response at 100 µM agonist” value on Trica5-HT1 [1] (CHO-WTA11 cells) is listed as “Significant responses”. Moreover, the “agonist behaviour” value is “very poor response” at Trica5-HT1 [1] (CHO-WTA11 cells), “poor agonist” in the test with Am5-HT1 and “poor agonist” in the test on Pea5-HT1. In addition, the EC50 on Trica5-HT1 [1] (EC50, receptor activation in CHO-WTA11 cells) was 551 µM; at Trica5-HT1 [1] (logEC50 (mean ± SEM), receptor activation in CHO-WTA11 cells, given as negative log values) it was 550 µM.
For `NCC(O)c1ccc(O)cc1` (racemic) [octopamine, DL-octopamine hydrochloride], at Trica5-HT1 [1] (CHO-WTA11 cells), the “response at concentrations ≤100 µM” value is “did not generate any detectable responses”.
On to `NCCc1c[nH]c2ccc(C(N)=O)cc12.O=C(O)/C=C\C(=O)O` [5-CT, 5-carboxamidotryptamine maleate], for which, on Trica5-HT1 [1] (CHO-WTA11 cells), the “response at 100 µM agonist” value is recorded as “Significant responses” and the “agonist behaviour” value is given as “partial agonists”. For the same compound, the “logEC50 (mean ± SEM)” value on Trica5-HT1 [1] (setting [3]) is −4.61±0.17. On Trica5-HT1 [1] (setting [4]), the EC50 was determined as 24.7 µM.
On to `COc1ccc2[nH]cc(CCN)c2c1` [5-MT, 5-methoxytryptamine], for which, at Trica5-HT1 [1] (CHO-WTA11 cells), the “response at 100 µM agonist” value is given as “Significant responses” and the “agonist behaviour” value is given as “partial agonists”. Moreover, on Trica5-HT1 [1] (receptor activation in CHO-WTA11 cells, given as negative log values, read-out: logEC50 (mean ± SEM) (converted)), the EC50 was 91.2 µM. Further, at Trica5-HT1 [1] (setting [4]), the EC50 came to 91.8 µM.
Turning to `CC1CCN(CC[C@H]2CCCN2S(=O)(=O)c2cccc(O)c2)CC1.Cl` [SB-269970, SB-269970 hydrochloride], the “inhibition of 5-HT induced responses (words)” value (“inhibition … (words)” for short) at Trica5-HT1 [2] (5-HT 100 nM) is “Moderate inhibition; also recorded: more effective inhibition”. In addition, the “logIC50 (mean ± SEM)” value on Trica5-HT1 [2] (setting [5]) is listed as −3.69±0.25. For the same compound, on Trica5-HT1 [2] (setting [6]), the IC50 turned out to be 205 µM.
With `COc1ccccc1N1CCN(CCN(C(=O)C2CCCCC2)c2ccccn2)CC1` [WAY-100635, N-{2-[4-(2-methoxyphenyl)-1-piperazinyl]-ethyl}-N-(2-pyridinyl) cyclohexanecarboxamide], the “inhibition … (words)” value against Trica5-HT1 [2] (5-HT 100 nM) is reported as “no clear dose-dependent effect”. The IC50 result at Trica5-HT1 [2] (setting [7]) was “no clear dose-dependence of inhibition”. Also, at Trica5-HT1 [2] (setting [5]), the “logIC50 (mean ± SEM)” value is given as “no clear dose-dependence of inhibition”. Moreover, the “antagonist behaviour” value in the test with Am5-HT1 is recorded as “partial antagonist”. Also, the “inhibition of agonist stimulated receptor” value in the test with Pea5-HT1 was “effective inhibition”.
Turning to `CC(C)(C)[C@]1(O)CCN2C[C@H]3c4ccccc4CCc4cccc(c43)[C@@H]2C1` [butaclamol, (+)-butaclamol hydrochloride], the “agonistic effects at high concentration” value at Trica5-HT1 [2] (100 µM, with 5-HT 100 nM) is reported as “some agonistic effects”. For the same compound, the “inhibition … (words)” value against Trica5-HT1 [2] (5-HT 100 nM) is on record as “no detectable inhibition”. At Trica5-HT1 [2] (setting [8]), this compound gave an IC50 of 204 µM.
As to `Cl.NCCc1ccc(O)c(O)c1.NCCc1ccc(O)c(O)c1` [dopamine, 3-hydroxytyramine (dopamine) hydrochloride], the “response at concentrations ≤100 µM” value at Trica5-HT1 [1] (CHO-WTA11 cells) was “did not generate any detectable responses”.
`O=C(c1ccc(F)cc1)C1CCN(CCn2c(=O)[nH]c3ccccc3c2=O)CC1` [ketanserin, ketanserin (+)-tartrate]: the “inhibition … (words)” value against Trica5-HT1 [2] (5-HT 100 nM) is reported as “no detectable inhibition”. For the same compound, on Trica5-HT1 [2] (setting [7]), the IC50 result is given as “no inhibition”. Moreover, the “logIC50 (mean ± SEM)” value on Trica5-HT1 [2] (setting [5]) is reported as “no inhibition”.
For `CSc1ccc2c(c1)C(N1CCN(C)CC1)Cc1ccccc1S2` (stereo not drawn) [methiothepin, methiothepin mesylate], the “inhibition … (words)” value at Trica5-HT1 [2] (5-HT 100 nM) is “effective dose-dependent inhibition”; against Trica5-HT1 [2] (5-HT 100 nM, listed as Methiothepin), “dose-dependent inhibition”. The nature of inhibition result on Trica5-HT1 [2] is “competitive antagonists”. For the same compound, the Kb at Trica5-HT1 [2] (Gaddum/Schild plot, 5-HT dose-response in presence of 10 nM to 1 mM antagonist, read-out: pA2 (± SEM) (converted)) is 0.676 µM. The “inhibition of activation by 100 nM 5-HT at high concentrations (≥1 mM)” value on Trica5-HT1 [2] is “completely inhibited”. Further, the IC50 is 16.2 µM on Trica5-HT1 [2] (inhibition of 5-HT (100 nM) mediated activation, given as negative log values, read-out: logIC50 (mean ± SEM) (converted)) and 16.4 µM at Trica5-HT1 [2] (setting [6]).
As for `CC[C@@H](CO)NC(=O)[C@@H]1C=C2c3cccc4c3c(cn4C)C[C@H]2N(C)C1` [methysergide, methysergide maleate], at Trica5-HT1 [2] (5-HT 100 nM), the “inhibition … (words)” value is recorded as “effective dose-dependent inhibition”. At Trica5-HT1 [2], the nature of inhibition result is reported as “competitive antagonists” and the “inhibition of activation by 100 nM 5-HT at high concentrations (≥1 mM)” value was “completely inhibited”. For the same compound, the IC50 against Trica5-HT1 [2] (setting [9]) was found to be 34 µM. At Trica5-HT1 [2] (setting [8]), this compound gave an IC50 of 33.9 µM.
In the same order, the values of `COc1cc2nc(N3CCN(C(=O)c4ccco4)CC3)nc(N)c2cc1OC` [prazosin, prazosin hydrochloride] are “effective dose-dependent inhibition”, “competitive antagonists”, “completely inhibited”, 1.39 µM and 1.38 µM.
In the case of `NCCc1ccc(O)cc1` [tyramine, tyramine hydrochloride], on Trica5-HT1 [1] (CHO-WTA11 cells), the “response at concentrations ≤100 µM” value was “did not generate any detectable responses”.
As to `COC(=O)[C@@H]1[C@H]2C[C@H]3c4[nH]c5ccccc5c4CCN3C[C@@H]2CC[C@@H]1O` [yohimbin, yohimbine hydrochloride], the inhibition result on Trica5-HT1 [2] (5-HT 100 nM, even at concentrations up to 100 µM) is “about 30%”.
For the compound `CC(N)Cc1c[nH]c2ccc(O)cc12.O=C(O)/C=C\C(=O)O` (stereo not drawn) [αm-5-HT, α-methylserotonin maleate], the “response at 100 µM agonist” value at Trica5-HT1 [1] (CHO-WTA11 cells) is recorded as “Significant responses”. Besides, the “fold less potent than 5-HT” value at Trica5-HT1 [1] (EC50 compared with 5-HT, CHO-WTA11 cells) is recorded as “more than 100 fold”. At Trica5-HT1 [1] (setting [3]), the “logEC50 (mean ± SEM)” value is −4.97±0.18. In addition, at Trica5-HT1 [1] (setting [4]), the EC50 stood at 10.7 µM.
